# Columns and labels:
# [1] = test system: primary hyaloid vessels in zebrafish; experiment: Quantification of primary hyaloid vasculature branch number in Tg(fli1:EGFP) zebrafish; format: in vivo
# Description: All experiments were carried out under ethical approval granted by the UCD animal research ethics committee. Tg(fli1:EGFP) zebrafish were maintained according to standard procedures on a 14 hr light/10 hr dark cycle at 28° C. Embryos were obtained by natural spawning and developmental stages established by time and morphological criteria. At 48 hours post fertilisation (hpf), 5 embryos per well were placed in 400 μl of Embryo Medium/0.1% DMSO and incubated with compound (typically, 10 μM) at 28° C. on a 14 h light/10 h dark cycle. At 5 days post fertilisation (dpf), larvae were euthanised, and fixed in 4% PFA at 4° C. overnight before analysis.
# Prior to analysis of the intraocular vasculature, the control and treated larvae were observed under an Olympus SZX16 stereo zoom microscope and screened for general malformations. Overall patterning of the vasculature (fin, gut and intersegmental vessels) was examined for abnormalities. Right lenses were dissected from the larvae and transferred to depression slides for observation under epi-fluorescence in the Olympus SZX16. Patterning of the hyaloid vessels on the treated larval lenses was compared to 0.1% DMSO controls and the archetypal pattern previously described (Alvarez et al., 2007; Alvarez et al., 2009). The number of primary vessels radiating from the back of the lens (3-4 main branches at 5 dpf in controls and previously described), was counted and the average number was graphed for each drug.
# (§1) All experimental protocols were carried out as per example 1 and 2. Briefly, zebrafish larvae were treated with 10 μM of AT-051/41206012 (chemical name 2-[2-(2-methoxyphenyl)ethenyl]pyrazine) purchased from Specs (The Netherlands). At 6 or 48 hours post fertilisation (hpf), 5 embryos per well were placed in 400 μl of Embryo Medium/0.1% DMSO and incubated with 10 μM AT-051/41206012 at 28° C. on a 14 h light/10 h dark cycle. Larvae were treated from 6-48 hpf (intersegmental vessel study) or from 48 to 120 hpf (primary hyaloid vessel study). At the end of the study, larvae were euthanized and fixed in 4% PFA at 4° C. overnight before analysis.
# (§2) The number of intersegmental vessels was counted and the average number was graphed for each drug. Right lenses were dissected from the larvae and transferred to depression slides for observation and the number of primary hyaloid vessels radiating from the back of the lens (3-4 main branches at 5 dpf in controls and previously described), was counted and the average number was graphed for each drug.
# [2] = test system: intersegmental vasculature in zebrafish; experiment: Quantification of intersegmental vessel number in zebrafish; format: in vivo; conditions: 10 μM; zebrafish embryos treated 6 hpf to 48 hpf
# Description: At 6 hours post fertilisation, 5 embryos per well were placed in 400 μL of embryo medium/0.1% DMSO and incubated with 10 μM compound at 28° C. on a 14 h light/10 h dark cycle. At 48 hpf larvae were manually dechorionated, euthanised, and fixed in 4% PFA at 4° C. overnight before analysis. The larvae were then washed with PBS and transferred to depression slides for observation under epi-fluorescence in an Olympus SZX16 fluorescent microscope. The number of intersegmental vessels was counted and the average number was graphed for each drug.
# as §1, §2
# [3] = test system: Ang-1; experiment: Multiplex ELISA of HMEC media: Ang-1; format: cell-based, human; conditions: compound-treated HMECs, 16 hours
# Description: Dermal-derived Human Microvascular Endothelial Cells (HMEC) were maintained at 37° C./5% CO2 in MCDB-131 medium (Gibco/cat: 10372) supplemented with 10% FCS, L-Glutamine (Gibco/cat: 25030-032), 1 μl/ml Hydrocortisone (Sigma/cat: H0396), 10 ng/ml EGF (BD Biosciences 354001) and 1% Pen-Strep (Gibco/cat: 151040-148). The wells of a μ-slide angiogenesis plate (IBIDI Cat no: 81506) were coated with a layer of matrigel matrix (BD 356234) which was left to polymerize for 45 minutes at 37° C. HMECs were grown to 80% confluence, washed with DPBS (Invitrogen) and trypsinised using 2 ml TrypLE™ Express (1×) (Invitrogen). Cells were centrifuged following flask detachment at 1200 rpm for 4 minutes. The cell pellet was resuspended in 3 ml full media and a cell count was performed using a haemocytometer. 7.5×10^3 cells were pipetted into each matrigel coated well of the μ-slide angiogenesis plate and treated with either 0.1% DMSO or 1, 3.16 or 10 μM compound 4 or compound 18. The slide was kept at 37° C./5% CO2 during cell tube formation. After 16 hours, 50 μl of media was removed from each of the Ibidi wells and 25 μl of the media was run in each well of a Meso Scale Discovery (MD, USA) custom multiplex ELISA containing the following analytes: Ang-1, Ang-2, VEGF, bFGF, PAI-1, sICAM and sVCAM. The ELISA was run as per manufacturer's instructions.
# [4] = test system: human retinal (ARPE-19) cells; experiment: MTT cell viability assay in ARPE-19; format: cell-based; conditions: 5, 10, 25, 50, 75 or 90 μM, 96 hours
# Description: A 3-(4,5-dimethylthiozol-2-yl)-2,5-diphenyltetrazolium bromide (MTT) dye reduction assay was carried out to determine the cytotoxicity of each compound on either human microvascular endothelial cells (HMECs) or human retinal pigmented epithelium cells (ARPE-19). Cells were maintained in a 95% air and 5% CO2 atmosphere at 37° C. in Dulbecco modified Eagle medium (DMEM, Sigma Aldrich) with 10% fetal bovine serum, 2 mM Gibco® L-glutamine and 100 units/ml penicillin, 1 mg/ml streptomycin (Invitrogen) supplementation. On day 1, cells were trypsinized (Trypsin-EDTA 1×) and seeded 1.4×10^4 cells per well of a 96 well plate and incubated overnight. On day 2, cells were serum staved in DMEM with L-glutamine and penicillin-streptomycin supplementation for 24 h. On day 3, cells were drug treated for 24 h (HMECs) or 96 h (ARPE-19 cells) with 0.1% DMSO or 10 μM to 90 μM of each compound 4, 8, 15, 18 or 20, with 4 replicate wells of each compound. After 24-96 h, cells were incubated with […] 5 mg/ml MTT labelling Reagent (Roche) for 2 h. Subsequently, when purple formazan crystals formed cells were incubated with 1× solubilisation solution (Roche) for 4 h and absorbance read at 570 nm using a microplate reader.
# [5] = test system: human HT29-Luc2 cells; experiment: Clonogenic assay of cell viability in HT29-Luc2; format: cell-based; conditions: 10 μM, 24-96 hours
# Description: HT29-Luc2 CRC cells were maintained using McCoy's 5A (Gibco 36600-088) medium supplemented with 10% FBS (Gibco 10270-106) at 37° C./5% CO2. Cells were washed in DPBS and trypsinised using 2 ml TrypLE™ Express (1×) (Invitrogen). Cells were centrifuged following detachment at 1200 rpm for 4 minutes. The cell pellet was resuspended in full media and a cell count was performed using a haemocytometer. 1.5×10^3 cells were seeded per well of a 6 well plate and left to adhere for 24 hours. Cells were then treated with 10 μM of compound 4 or 18 for 24 hours. The drugs were then removed and cells were allowed to grow in fresh media for 10 days in total, clones were then fixed using 4% paraformaldehyde and stained by incubating with 0.5% crystal violet solution (Pro-Lab diagnostics PL.7000) at RT for 2 hours. Clones counting was performed using the ColCount™ system (Oxford Optronix).
# [6] = 10 μM, zebrafish larvae treated 48 hpf to 5 dpf, vs 0.1% DMSO control
# [7] = concentrations below 10 μM (range 1, 2.5, 5, 7.5 and 10 μM tested), zebrafish larvae 48 hpf to 5 dpf
SMILES,"inhibition of developmental angiogenesis of the hyaloid vasculature (number of primary hyaloid vessels) [1, 6]","inhibition of developmental angiogenesis of the hyaloid vasculature (number of primary hyaloid vessels) [1, 7]",inhibition of developmental angiogenesis of intersegmental vessels (number of intersegmental vessels) [2],expression of Ang-1 [3],cell viability (MTT assay) [4],cell viability in a clonogenic assay [5]
"Cl.Oc1ccccc1/C=C/c1cnccn1 [Compound 4, (E)-2-[2-(Pyrazin-2-yl)vinyl]phenol hydrochloride]",inhibit developmental angiogenesis of the zebrafish hyaloid vasculature in a statistically significant manner,inhibit developmental angiogenesis of the zebrafish hyaloid vasculature in a statistically significant manner,inhibit developmental angiogenesis of zebrafish intersegmental vessels in a statistically significant manner,not significantly different to control-treated HMECs,does not affect cell viability,does not affect cell viability
"Oc1ccccc1C#Cc1cnccn1 [Compound 18, 2-[2-(Pyrazin-2-yl)ethynyl]phenol]",inhibit developmental angiogenesis of the zebrafish hyaloid vasculature in a statistically significant manner,inhibit developmental angiogenesis of the zebrafish hyaloid vasculature in a statistically significant manner,inhibit developmental angiogenesis of zebrafish intersegmental vessels in a statistically significant manner,not significantly different to control-treated HMECs,does not affect cell viability,does not affect cell viability

# Source: patent publication US9975860B2, “Anti-angiogenic compounds” (UNIVERSITY COLLEGE DUBLIN—NATIONAL UNIVERSITY OF IRELAND, …, priority 2014, dated 2018)
